Reference: ChEMBL document CHEMBL1201862, “PubChem BioAssay data set” (2004)
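Tested at 5 concentrations; 48 h exposure; 96-well plates; endpoints linearly interpolated, else capped at highest concentration. GI50 is the concentration that inhibits growth by half.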 The source made the active and inactive calls. Rule as the data show it: active = GI50 up to about 1.1 µM and inactive = higher.

Experiments:
Assay in all cases: growth of human tumour cells (NCI), 48 h
DU-145 = system: DU-145
OVCAR-8 = system: OVCAR-8
CCRF-CEM = system: CCRF-CEM
A549 = system: A549
UACC-257 = system: UACC-257
HCT-15 = system: HCT-15
A498 = system: A498
SF-295 = system: SF-295
MOLT-4 = system: MOLT-4
HOP-62 = system: HOP-62
M14 = system: M14
NCI-H460 = system: NCI-H460
K562 = system: K562
COLO 205 = system: COLO 205
NCI-H226 = system: NCI-H226
SF-539 = system: SF-539
U-251 = system: U-251
SNB-19 = system: SNB-19
SK-MEL-5 = system: SK-MEL-5
SK-OV-3 = system: SK-OV-3
MDA-N = system: MDA-N
MDA-MB-231 = system: MDA-MB-231
MDA-MB-435 = system: MDA-MB-435
OVCAR-3 = system: OVCAR-3
PC-3 = system: PC-3
SW-620 = system: SW-620
Malme-3M = system: Malme-3M
SR = system: SR
RPMI-8226 = system: RPMI-8226
TK-10 = system: TK-10
Hs-578T = system: Hs-578T
UACC-62 = system: UACC-62
LOX IMVI = system: LOX IMVI
CAKI-1 = system: CAKI-1
MCF7 = system: MCF7
OVCAR-5 = system: OVCAR-5
RXF 393 = system: RXF 393
SN12C = system: SN12C
EKVX = system: EKVX
786-0 = system: 786-0
HT-29 = system: HT-29
BT-549 = system: BT-549
HCT-116 = system: HCT-116
IGROV-1 = system: IGROV-1
HOP-92 = system: HOP-92
HL-60 = system: HL-60
SK-MEL-2 = system: SK-MEL-2
NCI/ADR-RES = system: NCI/ADR-RES
UO-31 = system: UO-31
ACHN = system: ACHN
HCC 2998 = system: HCC 2998
NCI-H23 = system: NCI-H23
SNB-75 = system: SNB-75
NCI-H522 = system: NCI-H522
KM12 = system: KM12
SF-268 = system: SF-268
T47D = system: T47D
OVCAR-4 = system: OVCAR-4
SK-MEL-28 = system: SK-MEL-28

Measured: GI50

Cc1cccc(N2C(=O)C3c4[nH]c5ccccc5c4C4CCC(C(C)(C)C)CC4C3C2=O)c1C (centres undefined)
> 100 µM: HCT-15
inactive: DU-145 > 100 µM | OVCAR-8 38.9 µM | CCRF-CEM 56.6 µM | A549 47 µM | UACC-257 > 100 µM | A498 > 100 µM | SF-295 > 100 µM | MOLT-4 > 100 µM | HOP-62 > 100 µM | M14 > 100 µM | NCI-H460 > 100 µM | K562 > 100 µM | COLO 205 > 100 µM | NCI-H226 > 100 µM | SF-539 75.9 µM | U-251 28.2 µM | SNB-19 > 100 µM | SK-MEL-5 > 100 µM | SK-OV-3 > 100 µM | MDA-N > 100 µM | MDA-MB-231 19 µM | MDA-MB-435 > 100 µM | OVCAR-3 > 100 µM | PC-3 > 100 µM | SW-620 40 µM | Malme-3M > 100 µM | SR > 100 µM | RPMI-8226 > 100 µM | TK-10 > 100 µM | Hs-578T 25.8 µM | UACC-62 > 100 µM | LOX IMVI > 100 µM | CAKI-1 > 100 µM | MCF7 > 100 µM | OVCAR-5 > 100 µM | RXF 393 > 100 µM | SN12C 78.7 µM | EKVX 29.7 µM | 786-0 38.7 µM | HT-29 > 100 µM | BT-549 > 100 µM | HCT-116 28.7 µM | IGROV-1 > 100 µM | HOP-92 > 100 µM | HL-60 16.9 µM | SK-MEL-2 > 100 µM | NCI/ADR-RES > 100 µM | UO-31 > 100 µM | ACHN > 100 µM | HCC 2998 > 100 µM | NCI-H23 > 100 µM

O=C1CCC[C@]2(CCC[C@@H](O)C2)N1
inactive: DU-145 > 100 µM | OVCAR-8 > 100 µM | CCRF-CEM > 100 µM | A549 > 100 µM | UACC-257 > 100 µM | SF-295 > 100 µM | SNB-75 > 100 µM | MOLT-4 > 10 µM | HOP-62 > 100 µM | NCI-H522 > 100 µM | M14 > 100 µM | NCI-H460 > 100 µM | K562 > 100 µM | COLO 205 > 100 µM | SF-539 > 100 µM | SNB-19 > 100 µM | KM12 > 100 µM | SK-MEL-5 > 100 µM | SK-OV-3 > 100 µM | MDA-N > 100 µM | MDA-MB-231 > 100 µM | OVCAR-3 > 100 µM | PC-3 > 100 µM | Malme-3M > 100 µM | TK-10 > 100 µM | Hs-578T > 100 µM | LOX IMVI > 100 µM | CAKI-1 > 100 µM | SF-268 > 100 µM | MCF7 > 100 µM | OVCAR-5 > 100 µM | RXF 393 > 100 µM | SN12C > 100 µM | EKVX > 100 µM | 786-0 > 100 µM | HT-29 > 100 µM | BT-549 > 100 µM | HCT-116 > 100 µM | IGROV-1 > 100 µM | HL-60 > 100 µM | T47D > 100 µM | SK-MEL-2 > 100 µM | NCI/ADR-RES > 100 µM | OVCAR-4 > 100 µM | ACHN > 100 µM | HCC 2998 > 100 µM
> 100 µM: HCT-15

O=C(CCCn1ccnc1[N+](=O)[O-])NCCn1ccnc1[N+](=O)[O-]
> 100 µM: HCT-15
inactive: DU-145 > 100 µM | OVCAR-8 > 100 µM | CCRF-CEM > 100 µM | A549 > 100 µM | UACC-257 > 100 µM | SF-295 > 100 µM | SK-MEL-28 > 100 µM | SNB-75 > 100 µM | MOLT-4 > 100 µM | HOP-62 > 100 µM | NCI-H522 > 100 µM | M14 > 100 µM | NCI-H460 > 100 µM | K562 > 100 µM | COLO 205 > 100 µM | NCI-H226 > 100 µM | SF-539 > 100 µM | U-251 > 100 µM | SNB-19 > 100 µM | KM12 > 100 µM | SK-MEL-5 > 100 µM | SK-OV-3 > 100 µM | MDA-N > 100 µM | MDA-MB-435 > 100 µM | OVCAR-3 > 100 µM | PC-3 > 100 µM | SW-620 > 100 µM | Malme-3M > 100 µM | SR > 100 µM | RPMI-8226 > 100 µM | TK-10 > 100 µM | Hs-578T > 100 µM | UACC-62 > 100 µM | LOX IMVI > 100 µM | CAKI-1 > 100 µM | SF-268 > 100 µM | MCF7 > 100 µM | OVCAR-5 > 100 µM | SN12C > 100 µM | EKVX > 100 µM | 786-0 > 100 µM | HT-29 > 100 µM | BT-549 > 100 µM | HCT-116 > 100 µM | IGROV-1 > 100 µM | HL-60 > 100 µM | T47D > 100 µM | SK-MEL-2 > 100 µM | NCI/ADR-RES > 100 µM | UO-31 > 100 µM | OVCAR-4 > 100 µM | ACHN > 100 µM | HCC 2998 > 100 µM | NCI-H23 > 100 µM
